Where “and” joins values, the source holds several entries; their conditions need not be identical. Equal entries are not always repeated.
Tests used:
CYP 2C19 = molecular target: T1, CYP 2C19 (Homo sapiens, UniProt P33261); test: Extracellular Cytochrome P450 inhibition, 2C19; assay type: in vitro ADME; conditions: mephenytoin 4′-hydroxylation
T1 construct: from tissue
From the text: Final solvent concentrations were 1% (v/v) or less.

[1] = Single dose kinetics in beagle dogs; assay type: in vivo; conditions: female, dog, plasma, Fasted
CYP 2D6 = molecular target: T2, CYP 2D6 (Homo sapiens, UniProt P10635); test: Extracellular Cytochrome P450 inhibition, 2D6; assay type: in vitro ADME; conditions: dextromethorphan O-demethylation
T2 construct: microsomes were incubated test substrates, which were known to be metabolized by CYP enzymes, with or without Compound 2; from tissue

CYP 2C9 = molecular target: T3, CYP 2C9 (Homo sapiens, UniProt P11712); test: Extracellular Cytochrome P450 inhibition, 2C9; assay type: in vitro ADME; conditions: diclofenac 4′-hydroxylation
T3 construct: from tissue

CYP3A4 [2] = test: Cellular Cytochrome P450 induction, CYP3A4; conditions: tested at 10 μM, cryopreserved human hepatocytes
CYP3A4 [3] = molecular target: T4, CYP3A4 (Homo sapiens, UniProt P08684); test: Extracellular Cytochrome P450 inhibition, 3A4; assay type: in vitro ADME
T4 construct: from tissue

urinary LTE4 production = test: Phase I study, urinary LTE4; assay type: in vivo, human; conditions: for Emax: Homo sapiens
From the text: Study Design: Single center, double-blind, randomized, placebo-controlled, single ascending dose followed by multiple ascending dose study.
Sample Size: (1) Single Dose Phase: eight (8) subjects (6 active, 2 placebo) per dose level; up to 5 dose levels are planned (a total of 40 subjects if all 5 dose levels are completed); and (2) Multiple Dose Phase: eight (8) subjects (6 active, 2 placebo) per dose level; up to 4 dose levels are planned (a total of 32 subjects if all 4 dose levels are completed).
Formulations: Compound 2 was supplied as an oral powder for reconstitution. Placebo solution matched. […] The placebo differed only in the absence of the active.
The following dosing cohorts were used:
Routes of Administration: All doses were administered orally with approximately 100 mL of water rinse. Subjects were fasted for at least 8 hours prior to dosing and for 2 hours after dosing. For BID dosing in the Multiple Dose Phase, when applicable, subjects were fasted for at least 2 hours prior to the second daily dose.
Plasma concentrations of Compound 1 were determined using a validated LC/MS method. Whole blood ionophore-stimulated leukotriene LTB4 and urinary LTE4 production were assayed by ELISA and mass spectrometry, respectively.
Analysis of Samples: Concentrations of Compound 1 was determined in plasma samples collected from subjects. Similarly, concentrations of LTB4 in plasma and urinary LTE4 were determined in blood and urine samples collected.

[4] = pKa and log P of the sodium salt; assay type: physicochemical
[5] = Liquid formulations (oral solutions/suspensions); assay type: physicochemical
Experimental: Values of pH reported were estimated based on pH indicating strips. […] Accordingly, provided in certain embodiments herein were formulations having a pH above about 9, above about 10 or of about 10. In certain embodiments, the formulation was buffered at a pH of about 10. All formulations prepared were sonicated for about 10 minutes.

[6] = Thermodynamic Aqueous Solubility by HPLC; assay type: physicochemical; conditions: water, 25° C., 24 hours
Experimental: Aqueous solubility was determined by suspending sufficient compound in water to give a maximum final concentration of ≧10 mg·ml^−1 of the parent free-form of the compound. The suspension was equilibrated at 25° C. for 24 hours then the pH was measured. The suspension was then filtered through a glass fibre C filter into a 96 well plate. The filtrate was then diluted by a factor of 101. Quantitation was by HPLC with reference to a standard solution of approximately 0.1 mg·ml^−1 in DMSO. Different volumes of the standard, diluted and undiluted sample solutions were injected. The solubility was calculated using the peak areas determined by integration of the peak found at the same retention time as the principal peak in the standard injection.
Analysis was performed on an Agilent HP1100 series system equipped with a diode array detector and using ChemStation software vB.02.01-SR1.

human FLAP = molecular target: T5, human FLAP (Homo sapiens, UniProt P20292); test: FLAP binding assay; conditions: individual tests 1-8; read-out: IC50 (nM), Inhibition of FLAP Radioligand Binding
T5 sequence (P20292 1-161): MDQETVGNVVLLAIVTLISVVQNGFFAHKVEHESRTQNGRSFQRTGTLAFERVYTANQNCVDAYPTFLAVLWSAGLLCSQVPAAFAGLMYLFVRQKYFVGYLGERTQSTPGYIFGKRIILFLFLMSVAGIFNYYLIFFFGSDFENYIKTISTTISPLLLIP

[7] = IV, 4:1 PEG400:Water, 0.67 mg/kg

T4 sequence (P08684 whole entry): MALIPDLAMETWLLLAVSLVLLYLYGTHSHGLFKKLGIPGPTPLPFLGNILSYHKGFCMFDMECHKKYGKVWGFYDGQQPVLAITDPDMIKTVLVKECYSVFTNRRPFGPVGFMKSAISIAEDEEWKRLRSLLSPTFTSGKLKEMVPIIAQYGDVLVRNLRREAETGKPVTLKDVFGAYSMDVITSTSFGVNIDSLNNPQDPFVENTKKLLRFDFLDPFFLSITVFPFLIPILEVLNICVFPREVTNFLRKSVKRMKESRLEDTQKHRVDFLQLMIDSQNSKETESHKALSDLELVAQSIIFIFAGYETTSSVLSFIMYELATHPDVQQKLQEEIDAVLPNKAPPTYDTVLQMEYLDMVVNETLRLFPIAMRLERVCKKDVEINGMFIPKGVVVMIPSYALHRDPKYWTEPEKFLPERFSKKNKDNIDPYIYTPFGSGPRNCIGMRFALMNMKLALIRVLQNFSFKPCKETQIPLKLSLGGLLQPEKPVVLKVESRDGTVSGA
T1 sequence (P33261 whole entry): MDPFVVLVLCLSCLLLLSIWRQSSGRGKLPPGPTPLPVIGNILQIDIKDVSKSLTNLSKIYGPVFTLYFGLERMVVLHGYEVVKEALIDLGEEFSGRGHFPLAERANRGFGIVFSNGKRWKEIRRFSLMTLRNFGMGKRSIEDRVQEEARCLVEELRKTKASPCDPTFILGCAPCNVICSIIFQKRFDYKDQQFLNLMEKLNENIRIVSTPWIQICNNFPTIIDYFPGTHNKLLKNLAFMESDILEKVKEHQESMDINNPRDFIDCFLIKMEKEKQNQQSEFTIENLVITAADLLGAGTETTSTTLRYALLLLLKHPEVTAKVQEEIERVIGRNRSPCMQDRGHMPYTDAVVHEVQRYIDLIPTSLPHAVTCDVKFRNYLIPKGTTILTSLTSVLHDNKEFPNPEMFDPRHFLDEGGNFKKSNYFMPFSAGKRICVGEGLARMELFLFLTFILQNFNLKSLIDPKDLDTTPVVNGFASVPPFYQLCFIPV
T3 sequence (P11712 whole entry): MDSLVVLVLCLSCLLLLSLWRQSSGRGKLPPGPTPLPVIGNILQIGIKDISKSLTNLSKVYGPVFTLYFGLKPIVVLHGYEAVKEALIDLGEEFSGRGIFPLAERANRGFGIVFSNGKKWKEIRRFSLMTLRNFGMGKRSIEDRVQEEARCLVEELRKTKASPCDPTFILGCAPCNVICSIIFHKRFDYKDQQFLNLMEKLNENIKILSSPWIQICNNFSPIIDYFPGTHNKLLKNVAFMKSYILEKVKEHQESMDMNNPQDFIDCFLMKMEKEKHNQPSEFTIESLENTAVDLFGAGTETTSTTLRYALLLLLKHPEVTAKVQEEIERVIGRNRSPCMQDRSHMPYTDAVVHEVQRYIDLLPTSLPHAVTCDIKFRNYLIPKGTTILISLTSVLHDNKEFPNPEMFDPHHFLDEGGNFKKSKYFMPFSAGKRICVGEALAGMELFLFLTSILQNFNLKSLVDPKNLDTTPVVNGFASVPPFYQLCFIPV
T2 sequence (P10635 whole entry): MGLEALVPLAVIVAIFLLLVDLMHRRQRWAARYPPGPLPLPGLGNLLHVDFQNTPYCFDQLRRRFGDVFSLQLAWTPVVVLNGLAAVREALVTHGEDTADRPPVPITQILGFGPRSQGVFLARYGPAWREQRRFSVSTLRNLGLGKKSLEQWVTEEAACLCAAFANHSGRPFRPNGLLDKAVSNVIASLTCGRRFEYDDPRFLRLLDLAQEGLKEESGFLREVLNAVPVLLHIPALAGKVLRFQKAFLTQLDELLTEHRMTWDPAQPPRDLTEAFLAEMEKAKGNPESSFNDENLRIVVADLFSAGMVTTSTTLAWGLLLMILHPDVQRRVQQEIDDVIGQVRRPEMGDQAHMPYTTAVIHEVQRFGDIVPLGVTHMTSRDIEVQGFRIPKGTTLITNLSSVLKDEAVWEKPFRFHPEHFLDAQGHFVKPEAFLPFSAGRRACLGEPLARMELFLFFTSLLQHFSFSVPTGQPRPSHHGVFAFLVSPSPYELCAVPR

Work on `CCOc1ccc(-c2ccc(Cn3c(CC(C)(C)C(=O)[O-])c(SC(C)(C)C)c4cc(OCc5ccc(C)cn5)ccc43)cc2)cn1.[Na+]` [Compound 2, sodium 3-[3-(tert-butylsulfanyl)-1-[4-(6-ethoxy-pyridin-3-yl)benzyl]-5-(5-methyl-pyridin-2-yl-methoxy)-1H-indol-2-yl]-2,2-dimethylpropionate] yielded an IC50 (CYP 2C19) of over 40000 nM, an AUC(0-inf) [1, 7] of 17600 ng·h/mL and a Cmax [1, 7] of 12000 ng/mL. It also gave a Tmax [1, 7] of 1.02 min, a bioavailability [1, 7] of 100% and a clearance ([1]; IV, 4:1 PEG400:Water, 0.67 mg/kg, read-out: CLp) of 0.6 mL/min/kg. It also gave a Vd ([1]; IV, 4:1 PEG400:Water, 0.67 mg/kg, read-out: VdSS) of 0.2 L/kg, a Cmax ([1]; Oral, 0.5% Methylcellulose, 5 mg/kg) of 12400 ng/mL and an IC50 (CYP 2D6) of over 50000 nM. The IC50 (CYP 2C9) was over 50000 nM, the “induction of CYP3A4” value (CYP3A4 [2]) was “No apparent induction” and the IC50 (CYP3A4 [3]; midazolam 1-hydroxylation) was over 50000 nM. The IC50 (CYP3A4 [3]; testosterone 6β-hydroxylation) was over 40000 nM, the Emax (urinary LTE4 production; 24 h, Multiple dose part, Day 1, 10 mg) was 54.1% and the Emax (urinary LTE4 production; 24 h, Multiple dose part, Day 1, 50 mg) was 94%. For the same compound, the Emax (urinary LTE4 production; 24 h, Multiple dose part, Day 1, 150 mg) was 98.3%, the Emax (urinary LTE4 production; 24 h, Multiple dose part, Day 1, 450 mg) was 85.7% and the Emax (urinary LTE4 production; 24 h, Single dose part, Day 1, 50 mg) was 86.3%. It also gave an Emax (urinary LTE4 production; 24 h, Single dose part, Day 1, 150 mg) of 97.4%, an Emax (urinary LTE4 production; 24 h, Single dose part, Day 1, 300 mg) of 97% and an Emax (urinary LTE4 production; 24 h, Single dose part, Day 1, 600 mg) of 96%. The Emax (urinary LTE4 production; 24 h, Single dose part, Day 1, 1000 mg) was 96.6%, the Emax (urinary LTE4 production; 264 h, Multiple dose part, Day 11, 10 mg) was 88.6% and the Emax (urinary LTE4 production; 264 h, Multiple dose part, Day 11, 50 mg) was 97.7%. For the same compound, the Emax (urinary LTE4 production; 264 h, Multiple dose part, Day 11, 150 mg) was 97.5%, the Emax (urinary LTE4 production; 264 h, Multiple dose part, Day 11, 450 mg) was 98.4% and the “Tmax (h), LTE4” value (urinary LTE4 production; Multiple dose part, Day 1, 10 mg) was 24.00 h. For the same compound, the “Tmax (h), LTE4” value (urinary LTE4 production; Multiple dose part, Day 1, 50 mg) was 16.00 h, the “Tmax (h), LTE4” value (urinary LTE4 production; Multiple dose part, Day 1, 150 mg) was 24.00 h and the “Tmax (h), LTE4” value (urinary LTE4 production; Multiple dose part, Day 1, 450 mg) was 24.00 h. For the same compound, the “Tmax (h), LTE4” value (urinary LTE4 production; Multiple dose part, Day 11, 10 mg) was 12.00 h, the “Tmax (h), LTE4” value (urinary LTE4 production; Multiple dose part, Day 11, 50 mg) was 9.00 h and the “Tmax (h), LTE4” value (urinary LTE4 production; Multiple dose part, Day 11, 150 mg) was 24.00 h. For the same compound, the “Tmax (h), LTE4” value (urinary LTE4 production; Multiple dose part, Day 11, 450 mg) was 12.00 h, the “Tmax (h), LTE4” value (urinary LTE4 production; Single dose part, Day 1, 50 mg) was 16.00 h and the “Tmax (h), LTE4” value (urinary LTE4 production; Single dose part, Day 1, 150 mg) was 16.00 h. The “Tmax (h), LTE4” value (urinary LTE4 production; Single dose part, Day 1, 300 mg) was 24.00 h, the “Tmax (h), LTE4” value (urinary LTE4 production; Single dose part, Day 1, 600 mg) was 24.00 h and the “Tmax (h), LTE4” value (urinary LTE4 production; Single dose part, Day 1, 1000 mg) was 16.00 h. The pKa [4] was 3.45, the “Results (liquid formulation)” value ([5]; 0.010M sodium carbonate buffer, 1% v/v Lutrol and 0.05% splenda, pH 10, ~10 mg/mL) was “Clear solution” and the “Results (liquid formulation)” value ([5]; 0.010M sodium carbonate buffer, 2% v/v ethanol and 0.05% splenda, pH 10, 10 mg/mL) was “Clear solution”. The “Results (liquid formulation)” value ([5]; 0.010M sodium carbonate buffer, 5% v/v Ethanol and 0.05% splenda, pH 10, ~10 mg/mL) was “Some undissolved”, the “Results (liquid formulation)” value ([5]; 0.010M sodium carbonate buffer, 5% v/v Simple syrup, pH 10, 10 mg/mL) was “Some undissolved” and the “Results (liquid formulation)” value ([5]; 0.010M sodium carbonate buffer, pH 10, 10 mg/mL) was “Clear solution”. For the same compound, the “Results (liquid formulation)” value ([5]; Vehicle 0.5% Methylcellulose, 3.33 mg/mL) was “Suspension”, the “Concentration of filtrate (as mg/mL of free base)” value [6] was “greater than 10 mg/mL” and the “pH of unfiltered saturated solution” value [6] was “above 9”. The IC50 (human FLAP) was 4.9 nM and 4.1 nM and 1.8 nM.
